Read-outs that look alike come from different tables or passages of the source.
How the values were obtained:
[1] = molecular target: α2 kinase domain (α2-KD, residues 1–310) (Homo sapiens, UniProt P54646); settings: read-out: Km for ATP; α2-KD phosphorylated using CaMKK2
ACC = ACC phosphorylation in HEK293 cells (western blot); type: cell-based, human; settings: 1 hr
Method: (§1) Figure 1 SU6656 Activates AMPK but Not AMPK-Related Kinases (A) HEK293 cells were incubated with the indicated concentrations of SU6656 or berberine (300 μM) for 1 hr; total AMPK activity was assayed in immunoprecipitates (top; mean ± SEM, n = 4), and phosphorylation of AMPK (Thr172), ACC (Ser80), and Raptor (Ser792) analyzed by western blotting (bottom; n = 2). (B) HEK293 cells were incubated with 100 μM SU6656 (1 hr), AMPK complexes containing α1, α2, β1, and β2 immunoprecipitated using isoform-specific antibodies, and AMPK activity measured (mean ± SEM, n = 4). (C) HeLa cells stably expressing LKB1 ([Fogarty et al., 2010]) were incubated with 100 μM SU6656 for 1 hr, AMPK or individual ARKs immunoprecipitated, and kinase assays carried out (antibodies that distinguish MARK2/MARK3 were not available, so they were assayed together). Results are means ± SEM (n = 2). In all panels, asterisks indicate significant differences from controls without SU6656. *p < 0.05, **p < 0.01, ****p < 0.0001.
(B) WT or RG cells were treated as in (A) and nucleotides extracted for analysis (mean ± SD, n = 3). […] (E) (See also Figure S2) Time courses of cellular oxygen uptake before and after addition of the indicated concentrations of sorafenib (SO, μM), SU6656 (100 μM) or phenformin (PHEN, 10 mM) (mean ± SEM, n = 4). (F) Effect of various concentrations of sorafenib or phenformin (10 mM) on activation (top, mean ± SEM, n = 3) or phosphorylation (bottom) of AMPK in cells expressing wild-type AMPK-γ2 (WT) or the R531G mutant AMPK-γ2 (RG). In all panels, asterisks show significant differences from DMSO controls (ns, not significant). […]
Cells were incubated for 60 min and AMPK activity measured; results in the top panel are means ± SEM (n = 8), with significant differences from the DMSO control indicated (ns, not significant). […]
SDS-PAGE was performed using precast Bis-Tris 4–12% gradient polyacrylamide gels in the MOPS buffer system (ThermoFisher Scientific). […] Protein concentrations were determined by Coomassie Blue binding with bovine serum albumin as standard ([Bradford, 1976]). […]

AMPK [2] = assay: AMPK activity and Thr172 phosphorylation in HEK293 cells; type: cell-based, human; settings: 1 hr
Method: as §1, with “0.0001. […]” for “0.0001.”
Endogenous AMPK was immunoprecipitated using the specified antibodies (for total AMPK, an equal mixture of anti-α1 and –α2 antibodies) and assayed at 200 μM ATP ([Hardie et al., 2000], [Towler et al., 2008]) using the AMARA peptide ([Dale et al., 1995]) as substrate, except for assays of allosteric activation by AMP (Figure 5A) where the SAMS peptide was used as substrate with 2 mM ATP ([Gowans et al., 2013]). The AMPK-related kinases SIK1, SIK2, SIK3, SNARK, MARK2/3 and MARK4 were immunoprecipitated and assayed as previously described ([Lizcano et al., 2004]) in lysates of Hela cells stably expressing LKB1 ([Fogarty et al., 2010]). LKB1 was assayed using the LKBtide peptide as substrate ([Sakamoto et al., 2004]).

HEK293 cells = assay: Cellular AMP:ATP and ADP:ATP ratios; type: cell-based, human; settings: 1 hr
Method: (B) WT or RG cells were treated as in (A) and nucleotides extracted for analysis (mean ± SD, n = 3). […] (E) (See also Figure S2) Time courses of cellular oxygen uptake before and after addition of the indicated concentrations of sorafenib (SO, μM), SU6656 (100 μM) or phenformin (PHEN, 10 mM) (mean ± SEM, n = 4). (F) Effect of various concentrations of sorafenib or phenformin (10 mM) on activation (top, mean ± SEM, n = 3) or phosphorylation (bottom) of AMPK in cells expressing wild-type AMPK-γ2 (WT) or the R531G mutant AMPK-γ2 (RG). In all panels, asterisks show significant differences from DMSO controls (ns, not significant). In (B), daggers (†) show significant differences between results in WT and RG cells. *p < 0.05, **p < 0.01, ***p < 0.001, ****p < 0.0001, ^††††p < 0.0001.
Cells were incubated for 60 min and AMPK activity measured; results in the top panel are means ± SEM (n = 8), with significant differences from the DMSO control indicated (ns, not significant). The bottom panels show western blots from the same experiment (n = 2). (B) Analysis of AMP:ATP and ADP:ATP ratios from a parallel experiment to that in (A). Results are means ± SEM (n = 3), with significant differences from the DMSO control indicated. *p < 0.05, **p < 0.01, ****p < 0.0001.
The levels of AMP, ADP and ATP were measured using a TSQ Quantiva interfaced with Ultimate 3000 Liquid Chromatography system (ThermoScientific), equipped with a porous graphitic carbon column (HyperCarb 30x1mm ID 3 μm; Part No: C-35003-031030, Thermo-Scientific). Mobile phase buffer A consisted of 0.3% (v/v) formic acid adjusted to pH 9 with ammonia prior to a 1:10 dilution. Mobile phase buffer B was 80% (v/v) acetonitrile. The column was maintained at a controlled temperature of 30°C and was equilibrated with 10% buffer B for 5 minutes at a constant flow rate of 0.06 mL/min. Aliquots of 1 μL of each sample were loaded onto the column and compounds eluted with a linear gradient of 10%-60% buffer B over 9 min. Buffer B was then increased to 100% within 1 min, and the column washed for 5 min with 100% Buffer B. Eluents were sprayed into the TSQ Quantiva using Ion Max NG ion source with ion transfer tube temperature set to 350°C and vaporizer temperature 125°C. The TSQ Quantiva was run in negative mode with a spray voltage of 2600, sheath gas 40 and Aux gas 10. Levels of ATP, ADP and AMP were measured using multiple reactions monitoring mode (MRM) with optimised collision energies and radio frequencies previously determined by infusing pure compounds. Three transitions were used to monitor each of the three compounds, ATP (505.92>158.98, 505.92>408.12 and 505.92>426.12), ADP (426.98>158.98, 426.98>328.78 and 426.98>409.09) and AMP (345.96>134.20, 345.96>151.27 and 345.96>211.12).

LKB1 versus AMPK = test system: LKB1 versus AMPK; set-up: method as in MRC Kinase Inhibitor Database; settings: ref MRC Kinase Inhibitor Database; cited from earlier work
Erk1/2 = Erk1/2 phosphorylation in SYF cells; type: cell-based, mouse; settings: SU6656 100 μM, PP2 100 nM
Erk1/Erk2 = Erk1/Erk2 phosphorylation in HEK293 cells (western blot); type: cell-based, human; settings: SU6656 100 μM, PP2 100 nM
AMPK [3] = type: cell-based, mouse; settings: SYF cells, 1 hr
Method: We next tested the effect of SU6656 in SYF cells, which are mouse embryo fibroblasts (MEFs) with null alleles for Src, Yes, and Fyn, the three Src kinases expressed in MEFs ([Klinghoffer et al., 1999]).
Top: AMPK activity (mean ± SEM, n = 4); bottom: western blots showing phosphorylation of Thr172 on AMPK, and of ERK1/2, in cells treated with DMSO (control), SU6656 (100 μM), or PP2 (100 nM) (n = 2). (B) As (A), but in SYF cells. (C) HeLa cells were transfected with DNAs encoding GFP alone, or GFP fused to WT, Y261F/Y365F (FF), or Y36F/Y261F/Y365F (FFF) mutants of LKB1; cells were treated with increasing concentrations of SU6656 for 1 hr and AMPK activity determined (mean ± SEM, n = 4). See also Figure S1. (D) HEK293 cells were transfected with DNAs encoding FLAG-tagged AMPK-α2 with or without a Y436F mutation. Cells were incubated with DMSO (control), 100 μM SU6656, 10 mM phenformin, or 10 μM A23187 for 1 hr; AMPK complexes were immunoprecipitated using anti-FLAG antibody and assayed. The top panels show kinase activities (mean ± SD, n = 3); the bottom panels show blots from the same experiment (n = 2). In all panels, asterisks indicate significant differences from DMSO controls; in (D), there were no significant differences between the WT and Y463F mutant. **p < 0.01, ****p < 0.0001. […]

α2 kinase domain (α2-KD, residues 1–310), sequence (P54646 1-310): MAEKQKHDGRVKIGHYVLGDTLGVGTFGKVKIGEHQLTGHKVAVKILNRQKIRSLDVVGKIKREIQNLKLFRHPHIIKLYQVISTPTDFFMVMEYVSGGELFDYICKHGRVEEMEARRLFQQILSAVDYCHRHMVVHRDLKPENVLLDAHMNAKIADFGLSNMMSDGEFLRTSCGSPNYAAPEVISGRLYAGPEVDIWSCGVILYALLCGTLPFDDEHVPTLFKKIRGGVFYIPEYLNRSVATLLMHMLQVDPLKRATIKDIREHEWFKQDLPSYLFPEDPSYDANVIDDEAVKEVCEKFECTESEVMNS

Nc1ncnc2c1ncn2[C@@H]1O[C@H](COP(=O)(O)OP(=O)(O)OP(=O)(O)O)[C@@H](O)[C@H]1O [ATP]
Km [1]: 151 ± 7 µM

CC1(C)C(=O)N([C@H]2CCc3c(O)cccc32)c2nc(Nc3cccc(CN4CCCC4)c3)ncc21 [MRT199665]
ACC phosphorylation (ACC): inhibition of phosphorylation | AMPK activity / Thr172 phosphorylation (AMPK [2]): modest increase in AMPK activity and Thr172 phosphorylation | cellular AMP:ATP and ADP:ATP ratios (HEK293 cells): not associated with changes in AMP:ATP or ADP:ATP ratios | potency of LKB1 inhibition relative to AMPK inhibition (LKB1 versus AMPK): inhibition of LKB1 was less potent than that of AMPK

CC(C)(C)n1nc(-c2ccc(Cl)cc2)c2c(N)ncnc21 [PP2]
AMPK activity / Thr172 phosphorylation (AMPK [2]): had no effect on AMPK activity or Thr172 phosphorylation | Erk1/2 phosphorylation (Erk1/2): had no effect on Erk1/2 | Erk1/Erk2 phosphorylation (Erk1/Erk2): reduced phosphorylation of Erk1/Erk2 | AMPK activity / Thr172 phosphorylation (AMPK [3]): still had no effect on AMPK
